In experiment [1] the target is T1, hM2 receptor (CHO-K1 cells) (Homo sapiens, UniProt P08172).
T1 construct: expressed in transfected cells; host or cells: CHO-K1 cells
T1 sequence (P08172 1-466): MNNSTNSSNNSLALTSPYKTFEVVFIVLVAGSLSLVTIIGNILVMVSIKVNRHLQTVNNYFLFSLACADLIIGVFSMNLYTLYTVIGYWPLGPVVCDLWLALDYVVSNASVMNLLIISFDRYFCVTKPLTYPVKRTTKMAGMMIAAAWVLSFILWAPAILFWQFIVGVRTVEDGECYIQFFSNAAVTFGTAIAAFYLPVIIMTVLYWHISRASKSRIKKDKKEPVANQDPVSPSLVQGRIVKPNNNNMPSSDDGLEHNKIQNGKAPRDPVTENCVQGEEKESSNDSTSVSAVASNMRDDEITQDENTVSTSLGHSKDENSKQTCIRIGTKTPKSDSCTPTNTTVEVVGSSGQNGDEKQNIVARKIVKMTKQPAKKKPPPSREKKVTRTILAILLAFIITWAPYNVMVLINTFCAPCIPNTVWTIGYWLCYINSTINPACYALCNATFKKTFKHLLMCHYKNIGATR
In words: Blockade of agonist-mediated inhibition of cAMP accumulation. As to conditions: CHO-K1 cells expressing the hM2 receptor; read-out: Ki value for blockade of oxotremorine-inhibition of forskolin-mediated cAMP accumulation. Type of experiment: cell-based. As for the experimental part: A. Blockade of Agonist-Mediated Inhibition of cAMP Accumulation
In this assay, the functional potency of a test compound was determined by measuring the ability of the test compound to block oxotremorine-inhibition of forskolin-mediated cAMP accumulation in CHO-K1 cells expressing the hM2 receptor.
cAMP assays were performed in a radioimmunoassay format using the Flashplate Adenylyl Cyclase Activation Assay System with ^125I-cAMP (NEN SMP004B, PerkinElmer Life Sciences Inc., Boston, Mass.), according to the manufacturer's instructions.
Cells were rinsed once with dPBS and lifted with Trypsin-EDTA solution (0.05% trypsin/0.53 mM EDTA) as described in the Cell Culture and Membrane Preparation section above. […] The cell pellet was then re-suspended in 10 mL dPBS, and the cells were counted with a Coulter Z1 Dual Particle Counter (Beckman Coulter, Fullerton, Calif.). […]
Reactions were incubated for 10 minutes at 37° C. and stopped by addition of 100 μL ice-cold detection buffer. Plates were sealed, incubated overnight at room temperature and counted the next morning on a PerkinElmer TopCount liquid scintillation counter (PerkinElmer Inc., Wellesley, Mass.). The amount of cAMP produced (pmol/well) was calculated based on the counts observed for the samples and cAMP standards, as described in the manufacturer's user manual. […]
In general terms: Cyclic AMP is a second messenger, typically raised through Gs and lowered through Gi signalling.

The target of experiment [2] is T1, hM2 receptor (CHO-K1 cells). In words: Blockade of agonist-mediated [35S]GTPγS binding. The experiment is classed as biochemical. The note with it: CHO-K1 cells expressing the hM2 receptor; read-out: Ki value for blockade of oxotremorine-stimulated [35S]GTPγS binding. As for the experimental part:
B. Blockade of Agonist-Mediated [^35S]GTPγS Binding
In a second functional assay, the functional potency of test compounds can be determined by measuring the ability of the compounds to block oxotremorine-stimulated [^35S]GTPγS binding in CHO-K1 cells expressing the hM2 receptor.
At the time of use, frozen membranes were thawed and then diluted in assay buffer with a final target tissue concentration of 5–10 μg protein per well. The membranes were briefly homogenized using a Polytron PT-2100 tissue disrupter and then added to the assay plates.
The EC90 value (effective concentration for 90% maximal response) for stimulation of [^35S]GTPγS binding by the agonist oxotremorine was determined in each experiment.
To determine the ability of a test compound to inhibit oxotremorine-stimulated [^35S]GTPγS binding, the following was added to each well of 96 well plates: 25 μL of assay buffer with [^35S]GTPγS (0.4 nM), 25 μL of oxotremorine(EC90) and GDP (3 μM), 25 μL of diluted test compound and 25 μL CHO cell membranes expressing the hM2 receptor. […] Microscint-20 scintillation liquid (50 μL) was added to each well, and each plate was sealed and radioactivity counted on a topcounter (PerkinElmer). Data were analyzed by nonlinear regression analysis with the GraphPad Prism Software package (GraphPad Software, Inc., San Diego, Calif.) using the non-linear regression, one-site competition equation. […]
Background: Binding of GTPγS marks nucleotide exchange on a G protein.

Bounds are passed on as bounds.

The term Ki denotes the dissociation constant of the complex between target and ligand, obtained from inhibition or displacement.

For the compound `CNCC(=O)NCCCCCN1CC[C@@H](C(C(N)=O)(c2ccccc2)c2ccccc2)C1` [Example 1], the inhibitory constant (Ki) in experiment [1] and in experiment [2] was under 100 nM throughout.

Source of the values: patent US7208515B2, “Diphenylmethyl compounds useful as muscarinic receptor antagonists” (Theravance, Inc., priority 2004, dated 2007).
